Measurements as given in ChEMBL document CHEMBL5678795 (Eur J Pharmacol, 1999).
The source made the active and inactive calls. The rule behind the calls is not given here.

Columns and labels:
[1] = molecular target: T1, Endothelin-1 receptor (Homo sapiens, UniProt P25101); assay: Displacement of [125I]endhothelin-1 from human ETA receptor stably expressed in CHO cells Membrane at 25 degC incubated for 3 hrs by radioligand competition binding assay; type: cell membranes
T1 sequence (P25101 whole entry): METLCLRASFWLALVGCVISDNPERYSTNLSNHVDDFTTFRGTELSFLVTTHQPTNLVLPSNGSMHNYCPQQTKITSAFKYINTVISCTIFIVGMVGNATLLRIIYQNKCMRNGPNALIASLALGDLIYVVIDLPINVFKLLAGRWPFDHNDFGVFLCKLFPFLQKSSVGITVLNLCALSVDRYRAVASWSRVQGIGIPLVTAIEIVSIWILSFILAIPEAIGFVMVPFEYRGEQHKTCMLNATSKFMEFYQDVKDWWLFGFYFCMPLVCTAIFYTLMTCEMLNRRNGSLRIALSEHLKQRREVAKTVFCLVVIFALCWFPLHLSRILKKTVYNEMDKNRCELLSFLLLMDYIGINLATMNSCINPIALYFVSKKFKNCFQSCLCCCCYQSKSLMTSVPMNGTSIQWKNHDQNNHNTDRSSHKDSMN

[2] = molecular target: T2, Endothelin-1 receptor (Homo sapiens) (UniProt P25101); assay: Displacement of [125I]endhothelin-1 from human ETA receptor stably expressed in CHO cells Membrane assessed as maximum binding at 25 degC at 0.25 to 1.0 nM incubated for 4 hrs by saturation binding assay; type: cell membranes; details: dose 0.25-1 nM
T2 sequence (whole entry): T1 sequence (P25101 whole entry)

[3] = molecular target: T3, Endothelin receptor type B (Homo sapiens, UniProt P24530); assay: Displacement of [125I]endhothelin-3 from human ETB receptor stably expressed in CHO cells Membrane assessed as inhibition constant at 25 degC incubated for 4 hrs by saturation binding assay; type: cell membranes
T3 sequence (P24530 whole entry): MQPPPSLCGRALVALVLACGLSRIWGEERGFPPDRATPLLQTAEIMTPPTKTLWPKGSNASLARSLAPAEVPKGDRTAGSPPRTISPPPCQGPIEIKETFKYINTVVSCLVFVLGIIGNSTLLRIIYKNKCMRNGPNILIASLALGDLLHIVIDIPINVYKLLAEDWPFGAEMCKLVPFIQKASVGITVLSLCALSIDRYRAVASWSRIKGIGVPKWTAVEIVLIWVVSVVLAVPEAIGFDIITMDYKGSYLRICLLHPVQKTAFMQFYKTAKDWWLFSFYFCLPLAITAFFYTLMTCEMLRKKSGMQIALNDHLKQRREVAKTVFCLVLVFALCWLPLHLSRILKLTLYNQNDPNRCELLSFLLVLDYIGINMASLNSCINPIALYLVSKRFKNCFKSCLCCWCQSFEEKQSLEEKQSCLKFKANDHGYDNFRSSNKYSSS

[4] = molecular target: Type-1 angiotensin II receptor (Homo sapiens) (UniProt P30556); assay: Displacement of [125I][Sar1,Ile8]-AT-II from human recombinant angiotensin AT1 receptor at 10 uM incubated for 120 mins by radiometric based scintillation counter assay relative to control
[5] = species: Homo sapiens; assay: Displacement of [3H] PK 11195 from central-type benzodiazepine (unknown origin) at 10 uM incubated for 15 mins by radiometric based scintillation counter assay relative to control
[6] = molecular target: D(1B) dopamine receptor (Homo sapiens) (UniProt P21918); assay: Displacement of [3H]SCH 23390 from human recombinant dopamine D5 receptor at 10 uM incubated for 60 mins by radiometric based scintillation counter assay relative to control
[7] = species: Rattus norvegicus; assay: Displacement of [3H]GABA from rat brain GABA receptor at 10 uM incubated for 60 mins by radiometric based scintillation counter assay relative to control; type: tissue-based
[8] = molecular target: Neuromedin-K receptor (Homo sapiens) (UniProt P29371); assay: Displacement of [3H]SR 142801 from human recombinant NK3 tachykinin receptor at 10 uM incubated for 120 mins by radiometric based scintillation counter assay relative to control
[9] = molecular target: Neuropeptide Y receptor type 2 (Homo sapiens) (UniProt P49146); assay: Displacement of [125I]peptide YY from human recombinant Y2 receptor at 10 uM incubated for 60 mins by radiometric based scintillation counter assay relative to control
[10] = molecular target: P2X receptor (Rattus norvegicus) (UniProt P51579+P49653+P51578+Q64663+P47824+P51577+P49654); assay: Displacement of [3H]alpha,beta -MeATP from rat bladder P2X-purinergic receptor at 10 uM incubated for 120 mins by radiometric based scintillation counter assay relative to control; type: protein assay
[11] = molecular target: 5-hydroxytryptamine receptor 1B (Homo sapiens) (UniProt P28222); assay: Displacement of [3H]GR125743 from human recombinant 5-Hydroxytryptamine 1B at 10 uM incubated for 60 mins by radiometric based scintillation counter assay relative to control
[12] = molecular target: 5-hydroxytryptamine receptor 2A (Homo sapiens) (UniProt P28223); assay: Displacement of [3H]ketanserin from human recombinant 5-Hydroxytryptamine 2A at 10 uM incubated for 60 mins by radiometric based scintillation counter assay relative to control
[13] = species: Homo sapiens; assay: Displacement of [3H]BRL 43694 from human recombinant 5-Hydroxytryptamine 3 at 10 uM incubated for 120 mins by radiometric based scintillation counter assay relative to control
[14] = species: Homo sapiens; assay: Inhibition of L-type Ca2+ channel (unknown origin) at 10 uM by radioligand binding assay relative to control
[15] = molecular target: T4, Endothelin-1 receptor (Rattus norvegicus) (UniProt P26684); assay: Antagonist activity at ETA receptor in rat MMQ cells assessed as inhibition of phosphatidylinositol hydrolysis in presence of myo-[3H] inositol by anion exchange chromatography; type: functional, cell-based
T4 sequence (whole entry): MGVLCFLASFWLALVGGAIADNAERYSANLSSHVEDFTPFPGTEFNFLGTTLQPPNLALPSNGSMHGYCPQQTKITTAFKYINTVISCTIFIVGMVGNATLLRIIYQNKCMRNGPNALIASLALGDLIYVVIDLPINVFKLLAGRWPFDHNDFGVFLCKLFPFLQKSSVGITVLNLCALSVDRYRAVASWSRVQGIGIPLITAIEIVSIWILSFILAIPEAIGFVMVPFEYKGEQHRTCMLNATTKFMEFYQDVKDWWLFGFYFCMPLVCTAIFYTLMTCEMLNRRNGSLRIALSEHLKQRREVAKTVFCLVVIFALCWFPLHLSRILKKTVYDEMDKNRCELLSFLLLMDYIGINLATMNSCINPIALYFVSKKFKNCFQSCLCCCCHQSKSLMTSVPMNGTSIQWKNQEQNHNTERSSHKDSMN

[16] = molecular target: T1, Endothelin-1 receptor; assay: Antagonist activity at ETA receptor in endothelin-1 stimulated human Pericardial smooth muscle cell assessed as inhibition of […] in presence of myo-[3H] inositol by anion exchange chromatography; type: functional, cell-based
[17] = molecular target: T2, Endothelin-1 receptor (Homo sapiens); assay: Antagonist activity at ETA receptor in human Pericardial smooth muscle cell assessed as inhibition of […] in presence of myo-[3H] inositol by anion exchange chromatography; type: functional, cell-based
[18] = Plasma clearance in Sprague-Dawley rat at 5 mg/kg, iv administered for 12 hrs by reverse phase HPLC-UV analysis; type: ADME, organism-based

Chain of Type-1 angiotensin II receptor (Homo sapiens) (P30556 whole entry): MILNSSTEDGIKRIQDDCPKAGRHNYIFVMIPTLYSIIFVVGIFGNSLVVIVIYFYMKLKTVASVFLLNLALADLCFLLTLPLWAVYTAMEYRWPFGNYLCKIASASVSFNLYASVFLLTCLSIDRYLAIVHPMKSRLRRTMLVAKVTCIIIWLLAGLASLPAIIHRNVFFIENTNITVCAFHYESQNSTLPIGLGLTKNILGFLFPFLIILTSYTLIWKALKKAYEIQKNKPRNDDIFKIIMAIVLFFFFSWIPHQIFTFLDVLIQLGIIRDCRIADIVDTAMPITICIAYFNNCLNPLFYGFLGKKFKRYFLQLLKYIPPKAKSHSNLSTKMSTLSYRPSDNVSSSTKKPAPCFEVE
Chain of 5-hydroxytryptamine receptor 2A (Homo sapiens) (P28223 whole entry): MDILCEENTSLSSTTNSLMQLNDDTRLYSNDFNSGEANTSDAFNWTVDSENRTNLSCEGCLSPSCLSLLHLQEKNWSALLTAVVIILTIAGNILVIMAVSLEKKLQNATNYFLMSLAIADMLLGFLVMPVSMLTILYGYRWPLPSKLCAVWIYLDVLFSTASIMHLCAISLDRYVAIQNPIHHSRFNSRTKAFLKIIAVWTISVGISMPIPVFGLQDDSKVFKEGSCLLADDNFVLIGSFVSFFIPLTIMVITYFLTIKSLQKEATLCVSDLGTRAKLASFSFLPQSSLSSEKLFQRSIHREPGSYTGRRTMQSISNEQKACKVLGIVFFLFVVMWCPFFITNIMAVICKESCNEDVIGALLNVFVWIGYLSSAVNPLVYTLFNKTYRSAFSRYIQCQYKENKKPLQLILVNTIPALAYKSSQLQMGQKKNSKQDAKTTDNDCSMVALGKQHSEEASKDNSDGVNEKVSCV
Chain of 5-hydroxytryptamine receptor 1B (Homo sapiens) (P28222 whole entry): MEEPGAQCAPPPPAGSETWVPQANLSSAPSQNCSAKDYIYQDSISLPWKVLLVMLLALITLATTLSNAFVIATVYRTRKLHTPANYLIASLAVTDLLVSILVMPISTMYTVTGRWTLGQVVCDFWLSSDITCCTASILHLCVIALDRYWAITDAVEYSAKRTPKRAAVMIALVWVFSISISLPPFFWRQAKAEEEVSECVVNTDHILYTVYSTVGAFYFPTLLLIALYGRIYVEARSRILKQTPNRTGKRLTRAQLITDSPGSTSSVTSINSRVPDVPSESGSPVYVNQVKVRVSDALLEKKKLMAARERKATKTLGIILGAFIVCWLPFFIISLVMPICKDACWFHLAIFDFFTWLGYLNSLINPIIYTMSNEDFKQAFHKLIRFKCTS
Chain of D(1B) dopamine receptor (Homo sapiens) (P21918 whole entry): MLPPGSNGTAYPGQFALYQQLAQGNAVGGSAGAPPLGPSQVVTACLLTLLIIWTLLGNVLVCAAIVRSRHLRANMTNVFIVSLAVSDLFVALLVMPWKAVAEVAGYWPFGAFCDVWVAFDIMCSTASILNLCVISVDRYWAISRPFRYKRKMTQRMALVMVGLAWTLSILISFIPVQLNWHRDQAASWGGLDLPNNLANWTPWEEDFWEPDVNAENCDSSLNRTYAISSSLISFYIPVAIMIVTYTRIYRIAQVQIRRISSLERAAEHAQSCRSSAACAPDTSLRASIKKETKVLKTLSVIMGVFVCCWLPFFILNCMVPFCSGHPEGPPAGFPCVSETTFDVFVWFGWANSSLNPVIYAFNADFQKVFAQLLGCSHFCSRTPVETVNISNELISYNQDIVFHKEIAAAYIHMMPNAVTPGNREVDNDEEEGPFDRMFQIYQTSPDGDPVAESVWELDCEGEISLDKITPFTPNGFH
Chain of Neuropeptide Y receptor type 2 (Homo sapiens) (P49146 whole entry): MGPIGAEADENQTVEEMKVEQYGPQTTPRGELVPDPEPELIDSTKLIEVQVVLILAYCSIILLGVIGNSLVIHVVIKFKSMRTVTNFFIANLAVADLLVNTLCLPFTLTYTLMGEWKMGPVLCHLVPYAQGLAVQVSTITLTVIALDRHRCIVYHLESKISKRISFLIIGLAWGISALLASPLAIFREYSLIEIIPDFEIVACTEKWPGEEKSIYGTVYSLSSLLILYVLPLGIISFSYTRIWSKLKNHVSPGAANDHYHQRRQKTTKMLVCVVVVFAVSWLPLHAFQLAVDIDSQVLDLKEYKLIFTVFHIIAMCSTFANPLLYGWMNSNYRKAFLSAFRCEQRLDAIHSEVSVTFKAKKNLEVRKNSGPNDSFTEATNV
Chain of Neuromedin-K receptor (Homo sapiens) (P29371 whole entry): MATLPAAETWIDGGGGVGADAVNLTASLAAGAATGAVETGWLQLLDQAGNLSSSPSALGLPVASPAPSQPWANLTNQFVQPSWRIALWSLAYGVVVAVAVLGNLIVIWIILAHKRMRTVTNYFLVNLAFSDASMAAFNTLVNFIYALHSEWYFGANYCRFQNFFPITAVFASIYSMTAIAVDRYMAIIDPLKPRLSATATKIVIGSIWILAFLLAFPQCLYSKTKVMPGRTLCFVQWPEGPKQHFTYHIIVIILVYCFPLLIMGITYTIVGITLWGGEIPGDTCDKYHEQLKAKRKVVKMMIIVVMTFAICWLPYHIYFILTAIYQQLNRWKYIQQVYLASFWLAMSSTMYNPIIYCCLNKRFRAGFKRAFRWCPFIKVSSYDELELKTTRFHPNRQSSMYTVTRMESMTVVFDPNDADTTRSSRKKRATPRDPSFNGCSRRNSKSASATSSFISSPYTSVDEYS

CCCCN(CCCC)C(=O)CN1[C@H](c2cc(OC)c3c(c2)OCO3)C[C@@H](C(=O)O)[C@@H]1CC(C)(C)CCC
IC50 [1]: 0.49 nM | Bmax [2]: inactive | Ki [3]: 13000 nM | inhibition [4]: < 10% | inhibition [5]: < 10% | inhibition [6]: < 10% | inhibition [7]: < 10% | inhibition [8]: < 10% | inhibition [9]: < 10% | inhibition [10]: 37% | inhibition [11]: < 10% | inhibition [12]: < 10% | inhibition [13]: < 10% | inhibition [14]: 29% | Activity [15]: inactive | IC50 [16]: 3.03 nM | Activity [17]: inactive | clearance [18]: 25 mL/min/kg
